Source: patent publication US11179379B2, “Compositions and methods for hemoglobin production” (THE CHILDREN'S HOSPITAL OF PHILADELPHIA, priority 2017, dated 2021)

Test system: HUDEP-2 expressing Cas9 cells
Assay: Combination of eIF2αK1 gRNA and pomalidomide, HbF positive cells
Type: cell-based, human
Details: pomalidomide in combination with eIF2αK1 inhibition (eIF2αK1 gRNA #3 or #5); three independent experiments
Method: FIG. 3 is a graph of the percentage of cells positive for HbF expression. HUDEP-2 expressing Cas9 cells were transduced with eIF2αK1 sgRNA #3, eIF2αK1 sgRNA #5, a gRNA targeting BCL11A exon 2, or a negative control gRNA. Cells were then incubated with or without pomalidomide. n=3.
Combination experiments with the immunomodulatory pomalidomide, which is an HbF inducer, were also performed. If eIF2αK1 inhibition works at least in part by altering protein translation, additive effects may be observed when using compounds that predominantly affect transcription of fetal globin genes. Briefly, HUDEP-2 expressing Cas9 cells were transduced with eIF2αK1 gRNA #3, eIF2αK1 gRNA #5, a gRNA targeting BCL11A exon 2, or a negative control gRNA. The cells were then incubated with or without pomalidomide. […] Indeed, the results with pomalidomide in combination with eIF2αK1 inhibition were very strong in three independent experiments, even stronger than those observed with Bcl11A inhibition and pomalidomide.

Row | Compound | number of HbF positive cells
1 | Nc1cccc2c1C(=O)N(C1CCC(=O)NC1=O)C2=O (stereo not drawn) [pomalidomide] | greatly increased

Test system: eIF2αK1
Assay: not given
Details: literature reports; cited from earlier work

Row | Compound | inhibition of eIF2αK1 activity
2 | C=CC1=C(C)c2cc3[n-]c(cc4[n-]c(cc5nc(cc1n2)C(C)=C5C=C)c(C)c4CCC(=O)O)c(CCC(=O)O)c3C.[Fe+2] [Fe(II)-heme] | inhibit eIF2αK1 activity
3 | C=CC1=C(C)c2cc3[n-]c(cc4[n-]c(cc5nc(cc1n2)C(C)=C5C=C)c(C)c4CCC(=O)O)c(CCC(=O)O)c3C.[Cl-].[Fe+3] [Fe(III)-hemin] | inhibit eIF2αK1 activity
4 | O=c1c(O)c(-c2ccc(O)c(O)c2)oc2cc(O)cc(O)c12 [Quercetin] | ATP-competitive kinase inhibitor of eIF2αK1
5 | C=CC1=C(C)/C(=C/C2=NC(=C\c3[nH]c(/C=C4\NC(=O)C(C)=C4C=C)c(C)c3CCC(=O)O)/C(CCC(=O)O)=C2C)NC1=O [biliverdin] | inhibit eIF2αK1 activity
6 | uroporphyrin | inhibit eIF2αK1 activity
